Source: ChEMBL document CHEMBL1201862, “PubChem BioAssay data set” (2004)
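Cells were grown in 96-well plates and exposed to each compound for 48 hours at five concentrations; endpoints were interpolated linearly between bracketing concentrations, or set to the highest concentration if not reached. At the GI50, growth is halved.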 Activity calls are given as the source filed them. Cut-off read from the data, not from the text of the source: active = GI50 up to about 1.1 µM and inactive = higher.

Columns and labels:
Test in all cases: NCI tumour cell line growth inhibition, 48 h
A549 = system: A549
HCC 2998 = system: HCC 2998
UACC-257 = system: UACC-257
SNB-19 = system: SNB-19
CCRF-CEM = system: CCRF-CEM
OVCAR-5 = system: OVCAR-5
HCT-116 = system: HCT-116
A498 = system: A498
COLO 205 = system: COLO 205
DMS-273 = system: DMS-273
SR = system: SR
KM12 = system: KM12
NCI-H23 = system: NCI-H23
XF498 = system: XF498
PC-3 = system: PC-3
MCF7 = system: MCF7
MDA-MB-231 = system: MDA-MB-231
DU-145 = system: DU-145
BT-549 = system: BT-549
T47D = system: T47D

| SMILES | GI50 (A549) | GI50 (HCC 2998) | GI50 (UACC-257) | GI50 (SNB-19) | GI50 (CCRF-CEM) | GI50 (OVCAR-5) | GI50 (HCT-116) | GI50 (A498) | GI50 (COLO 205) | GI50 (DMS-273) | GI50 (SR) | GI50 (KM12) | GI50 (NCI-H23) | GI50 (XF498) | GI50 (PC-3) | GI50 (MCF7) | GI50 (MDA-MB-231) | GI50 (DU-145) | GI50 (BT-549) | GI50 (T47D) |
| --- | --- | --- | --- | --- | --- | --- | --- | --- | --- | --- | --- | --- | --- | --- | --- | --- | --- | --- | --- | --- |
| S=C1SCC2CCCN12 (configuration not stated) | > 100 µM (inactive) | > 100 µM (inactive) | > 100 µM (inactive) | > 100 µM (inactive) | > 100 µM (inactive) | > 100 µM (inactive) | > 100 µM (inactive) | > 100 µM (inactive) | > 100 µM (inactive) | > 100 µM (inactive) | > 100 µM (inactive) | > 100 µM (inactive) | – | – | – | – | – | – | – | – |
| CC12N=NNC1C(=O)NC2=O (configuration not stated) | > 100 µM (inactive) | > 100 µM (inactive) | > 100 µM (inactive) | > 100 µM (inactive) | > 100 µM (inactive) | – | > 100 µM (inactive) | 89.3 µM (inactive) | > 100 µM (inactive) | > 100 µM (inactive) | > 100 µM (inactive) | > 100 µM (inactive) | > 100 µM (inactive) | – | – | – | – | – | – | – |
| OCC12C3C4C1C1C2C3C41CO (configuration not stated) | > 100 µM (inactive) | > 100 µM (inactive) | > 100 µM (inactive) | > 100 µM (inactive) | > 100 µM (inactive) | > 100 µM (inactive) | – | > 100 µM (inactive) | > 100 µM (inactive) | – | – | – | > 100 µM (inactive) | > 100 µM (inactive) | – | – | – | – | – | – |
| CC1(C)COC(c2c(-c3ccccc3)noc2C[S+]([O-])c2ccccc2)=N1 (configuration not stated) | 46 µM (inactive) | 32.3 µM (inactive) | 52.1 µM (inactive) | > 100 µM (inactive) | 29.2 µM (inactive) | > 100 µM (inactive) | 28.2 µM (inactive) | 20.3 µM (inactive) | 40.4 µM (inactive) | 31.2 µM (inactive) | 29.1 µM (inactive) | 36.1 µM (inactive) | 32.3 µM (inactive) | – | – | – | – | – | – | – |
| COc1ccc(CN(CCN(C)C)c2ccccn2)cc1.Cn1c(=O)c2[nH]c(Br)nc2n(C)c1=O | – | – | > 100 µM (inactive) | > 100 µM (inactive) | > 100 µM (inactive) | > 100 µM (inactive) | – | > 100 µM (inactive) | – | – | – | > 100 µM (inactive) | > 100 µM (inactive) | > 100 µM (inactive) | – | – | – | – | – | – |
| CCOC(=O)NC(=O)c1cn(CCOC(=O)NCCCCCCNC(=O)OCCn2cc(C(=O)NC(=O)OCC)c(=O)[nH]c2=O)c(=O)[nH]c1=O | > 100 µM (inactive) | > 100 µM (inactive) | > 100 µM (inactive) | > 100 µM (inactive) | > 100 µM (inactive) | – | > 100 µM (inactive) | > 100 µM (inactive) | > 100 µM (inactive) | > 100 µM (inactive) | – | > 100 µM (inactive) | – | – | – | – | – | – | – | – |
| CC(C)(C)OC(=O)C#CC[C@H]1CCCC1/C=C/C(O)=C1/C(=O)NC(CCCNC(=O)OC(C)(C)C)C1=O (some centres not stated) | > 100 µM (inactive) | 42.9 µM (inactive) | 24.2 µM (inactive) | 30.6 µM (inactive) | 27.2 µM (inactive) | 88.5 µM (inactive) | 11.4 µM (inactive) | 45.2 µM (inactive) | 17.8 µM (inactive) | 26.1 µM (inactive) | 26.2 µM (inactive) | 41.6 µM (inactive) | 24.9 µM (inactive) | – | – | – | – | – | – | – |
| Cc1cn(CC2=NCCN2)c(=O)[nH]c1=O | > 100 µM (inactive) | > 100 µM (inactive) | > 100 µM (inactive) | > 100 µM (inactive) | > 100 µM (inactive) | > 100 µM (inactive) | > 100 µM (inactive) | > 100 µM (inactive) | > 100 µM (inactive) | – | > 100 µM (inactive) | > 100 µM (inactive) | > 100 µM (inactive) | – | > 100 µM (inactive) | > 100 µM (inactive) | > 100 µM (inactive) | > 100 µM (inactive) | > 100 µM (inactive) | > 100 µM (inactive) |
| CCOC(=O)C1=C(C)N(Cc2ccc(Cl)cc2Cl)C2(O)C=CC(=O)C3C(=O)N(c4ccccc4)C(=O)C132 (configuration not stated) | 2.11 µM (inactive) | 1.71 µM (inactive) | 2.2 µM (inactive) | 1.88 µM (inactive) | 0.222 µM (active) | 3.17 µM (inactive) | 3.11 µM (inactive) | 4.57 µM (inactive) | 1.7 µM (inactive) | – | 0.51 µM (active) | 1.71 µM (inactive) | 1.63 µM (inactive) | – | 1.5 µM (inactive) | 0.857 µM (active) | 2.1 µM (inactive) | 1.36 µM (inactive) | 1.3 µM (inactive) | 1.55 µM (inactive) |
| O/N=N/c1ccccn1.OCC1OC2OC3C(CO)OC(OC4C(CO)OC(OC5C(CO)OC(OC6C(CO)OC(OC7C(CO)OC(OC1C(O)C2O)C(O)C7O)C(O)C6O)C(O)C5O)C(O)C4O)C(O)C3O (configuration not stated) | > 100 µM (inactive) | > 100 µM (inactive) | 71.1 µM (inactive) | 63.7 µM (inactive) | 67.5 µM (inactive) | > 100 µM (inactive) | 41.6 µM (inactive) | > 100 µM (inactive) | > 100 µM (inactive) | – | 0.583 µM (active) | 82.4 µM (inactive) | > 100 µM (inactive) | – | 65.3 µM (inactive) | > 100 µM (inactive) | > 100 µM (inactive) | > 100 µM (inactive) | 30.8 µM (inactive) | > 100 µM (inactive) |
